Converted amounts (≈) assume the structure as drawn.
How the values were obtained:
[1] = tested on: Mycobacterium tuberculosis; assay: Antimycobacterial activity against Mycobacterium tuberculosis H37Rv after 8 days by MABA assay; assay type: functional; conditions: 192 h
[2] = tested on: Mycobacterium tuberculosis; assay: Antimycobacterial activity against Mycobacterium tuberculosis H37Rv after 11 days by LORA assay; assay type: functional; conditions: 264 h
[3] = tested on: Mycobacterium tuberculosis; assay: Antimycobacterial activity against Mycobacterium tuberculosis infected in mouse assessed as fold reduction of colony forming units in lungs at 100 mg/kg, po administered for 5 days a week for 3 weeks beginning on day 11 post-infection relative to pretomanid; assay type: functional
[4] = Metabolic stability in human liver microsomes assessed as compound remaining after 1 hr; assay type: ADME; conditions: read-out: Stability
[5] = Metabolic stability in CD1 mouse liver microsomes assessed as compound remaining after 1 hr; assay type: ADME; conditions: read-out: Stability
Vero = assay: Cytotoxicity against African green monkey Vero cells after 72 hrs; assay type: cell-based; conditions: Chlorocebus sabaeus
Lung = assay: AUC (0 to infinity) in CD1 mouse lung at 40 mg/kg, po; assay type: ADME, organism-based; design: dose 40 mg/kg, time infinity, route oral; conditions: in vivo
Plasma = assay: AUC (0 to infinity) in CD1 mouse plasma at 40 mg/kg, po; assay type: ADME, organism-based; design: dose 40 mg/kg, route oral, time infinity; conditions: in vivo
[6] = tested on: Mycobacterium tuberculosis; assay: Ratio of pretomanid MIC90 to compound MIC90 for Mycobacterium tuberculosis H37Rv after 11 days by LORA assay; assay type: functional
[7] = tested on: Mycobacterium tuberculosis; assay: Ratio of pretomanid MIC90 to compound MIC90 for Mycobacterium tuberculosis H37Rv after 8 days by MABA assay; assay type: functional
[8] = Half life in CD1 mouse lung at 40 mg/kg, po; assay type: ADME, organism-based
[9] = Ratio of AUC (0 to infinity) in CD1 mouse lung to AUC (0 to infinity) in CD1 mouse plasma at 40 mg/kg, po; assay type: ADME, organism-based; conditions: read-out: Ratio AUC
[10] = Half life in CD1 mouse plasma at 40 mg/kg, po; assay type: ADME, organism-based
[11] = Cmax in CD1 mouse plasma at 40 mg/kg, po; assay type: ADME, organism-based; design: dose 40 mg/kg, route oral
[12] = Cmax in CD1 mouse lung at 40 mg/kg, po; assay type: ADME, organism-based; design: dose 40 mg/kg, route oral
[13] = tested on: Mycobacterium tuberculosis; assay: Antimycobacterial activity against Mycobacterium tuberculosis infected in mouse assessed as fold reduction of colony forming units in lungs at 100 mg/kg, po administered for 5 days a week for 3 weeks beginning on day 70 post-infection relative to control; assay type: functional

Row | SMILES | MIC90 [1] | MIC90 [2] | remaining at 1 h [4] | remaining at 1 h [5] | IC50 (Vero) | other results
1 | O=[N+]([O-])c1cn2c(n1)OC[C@@H](OCc1ccc(-c3ccc(C(F)(F)F)nc3)cc1F)C2 | 0.13 µM (≈ 0.057 µg/mL) | 0.68 µM (≈ 0.298 µg/mL) | 96% | 78% | > 128 µM | Ratio [3]: 13
2 | O=[N+]([O-])c1cn2c(n1)OCC(COc1ccc(-c3ccc(C(F)(F)F)cc3)cn1)C2 (stereo unspecified) | 0.04 µM (≈ 0.0168 µg/mL) | 109 µM (≈ 45.8 µg/mL) |  |  | > 128 µM | 
3 | O=[N+]([O-])c1cn2c(n1)OC[C@@H](OCc1ccc(-c3ccc(OC(F)(F)F)cc3)cc1)C2 |  |  |  |  |  | AUC (Lung): 218 µg/h/mL; AUC (Plasma): 198 µg/h/mL
4 | O=[N+]([O-])c1cn2c(n1)OC[C@@H](OCc1c(F)cc(-c3ccc(OC(F)(F)F)cc3)cc1F)C2 | 0.06 µM (≈ 0.0283 µg/mL) | 1.5 µM (≈ 0.707 µg/mL) | 95% | 94% | > 128 µM | Ratio [3]: 0.98
5 | O=[N+]([O-])c1cn2c(n1)OCC(COCc1ccc(-c3ccc(F)cc3)cc1)C2 (stereo unspecified) | 0.47 µM (≈ 0.18 µg/mL) | 7.9 µM (≈ 3.03 µg/mL) |  |  | 24 µM | 
6 | O=[N+]([O-])c1cn2c(n1)OC[C@@H](OCc1ccc(-c3ccc(C(F)(F)F)nc3)c(F)c1)C2 | 0.25 µM (≈ 0.11 µg/mL) | 0.9 µM (≈ 0.395 µg/mL) |  |  | > 128 µM | 
7 | O=[N+]([O-])c1cn2c(n1)OC[C@@H](COc1ccc(OC(F)(F)F)cc1)C2 | 0.23 µM (≈ 0.0826 µg/mL) | 1.9 µM (≈ 0.683 µg/mL) | 91% | 80% | > 128 µM | Ratio [6]: 5; Ratio [3]: 0.7; Ratio [7]: 2
8 | N#Cc1cc(-c2ccc(OC(F)(F)F)cc2)ccc1CO[C@@H]1COc2nc([N+](=O)[O-])cn2C1 | 0.053 µM (≈ 0.0244 µg/mL) | 0.45 µM (≈ 0.207 µg/mL) | 91% | 88% | > 128 µM | Ratio [3]: 2.9
9 | O=[N+]([O-])c1cn2c(n1)OC[C@@H](OCc1ccc(-c3ccc(OC(F)(F)F)cc3)c(F)c1)C2 | 0.055 µM (≈ 0.0249 µg/mL) | 0.51 µM (≈ 0.231 µg/mL) |  |  | > 128 µM | 
10 | O=[N+]([O-])c1cn2c(n1)OCC(COc1ccc(-c3ccc(OC(F)(F)F)cc3)cn1)C2 (stereo unspecified) | 0.045 µM (≈ 0.0196 µg/mL) | 100 µM (≈ 43.6 µg/mL) |  |  | > 128 µM | 
11 | O=[N+]([O-])c1cn2c(n1)OCC(COCc1ccc(OC(F)(F)F)cc1)C2 (stereo unspecified) |  |  | 71% | 41% | 46 µM | 
12 | O=[N+]([O-])c1cn2c(n1)OCC(COc1ccc(-c3ccc(OC(F)(F)F)cc3)cc1)C2 (stereo unspecified) | 0.14 µM (≈ 0.061 µg/mL) | > 128 µM | 100% | 93% | > 128 µM | Ratio [3]: 2
13 | O=[N+]([O-])c1cn2c(n1)OCC(COCc1ccc(-c3ccc(OC(F)(F)F)cc3)cc1)C2 (stereo unspecified) | 0.3 µM (≈ 0.135 µg/mL) | > 128 µM |  |  | > 128 µM | 
14 | O=[N+]([O-])c1cn2c(n1)OCC(COc1ccc(OC(F)(F)F)cc1)C2 (stereo unspecified) |  |  |  |  | > 128 µM | 
15 | O=[N+]([O-])c1cn2c(n1)OC[C@@H](OCc1ccc(-c3ccc(OC(F)(F)F)cc3)cc1Cl)C2 | 0.17 µM (≈ 0.0799 µg/mL) | 1.6 µM (≈ 0.752 µg/mL) | 99% | 100% | > 128 µM | Ratio [3]: 2.1
16 | O=[N+]([O-])c1cn2c(n1)OCC(COc1ccc(-c3ccc(F)cc3)cc1)C2 (stereo unspecified) | 0.03 µM (≈ 0.0111 µg/mL) | 108 µM (≈ 39.9 µg/mL) |  |  | > 128 µM | 
17 | O=[N+]([O-])c1cn2c(n1)OCC(COc1ccc(-c3ccc(C(F)(F)F)cc3)cc1)C2 (stereo unspecified) | 0.035 µM (≈ 0.0147 µg/mL) | 100 µM (≈ 41.9 µg/mL) |  |  | > 128 µM | 

Row | SMILES | MIC90 [1] | MIC90 [2] | remaining at 1 h [4] | remaining at 1 h [5] | IC50 (Vero) | other results
18 | O=[N+]([O-])c1cn2c(n1)OC[C@@H](OCc1c(Cl)cc(-c3ccc(OC(F)(F)F)cc3)cc1Cl)C2 | 0.62 µM (≈ 0.313 µg/mL) | 11 µM (≈ 5.55 µg/mL) | 98% | 93% | > 128 µM | 
19 | O=[N+]([O-])c1cn2c(n1)OC[C@H](COc1ccc(OC(F)(F)F)cc1)C2 | 0.5 µM (≈ 0.18 µg/mL) | 9 µM (≈ 3.23 µg/mL) | 90% | 72% | > 128 µM | Ratio [6]: 5; Ratio [3]: 0.41; Ratio [7]: 2
20 | O=[N+]([O-])c1cn2c(n1)OC[C@@H](OCc1ccc(-c3ccc(OC(F)(F)F)cc3)cc1F)C2 | 0.017 µM (≈ 0.00771 µg/mL) | 1.2 µM (≈ 0.544 µg/mL) | 93% | 85% | > 128 µM | half-life [8]: 28.1 h; AUC (Lung): 549 µg/h/mL; Kp [9]: 2.7; half-life [10]: 22.3 h; Cmax [11]: 6700 ng/mL; Ratio [3]: 33; AUC (Plasma): 202 µg/h/mL; Cmax [12]: 12100 ng/mL; Ratio [13]: 2.2
21 | O=[N+]([O-])c1cn2c(n1)OC[C@@H](OCc1ccc(OC(F)(F)F)cc1)C2 [PRETOMANID] | 0.5 µM (≈ 0.18 µg/mL) | 2.6 µM (≈ 0.934 µg/mL) | 82% |  |  | 
22 | O=[N+]([O-])c1cn2c(n1)OC[C@@H](OCc1ccc(-c3ccc(OC(F)(F)F)cc3)c[n+]1[O-])C2 | 0.05 µM (≈ 0.0226 µg/mL) | 32 µM (≈ 14.5 µg/mL) |  |  | > 128 µM | 
23 | O=[N+]([O-])c1cn2c(n1)OC[C@@H](OCc1ccc(-c3ccc(OC(F)(F)F)cc3)c(Cl)c1)C2 | 0.21 µM (≈ 0.0987 µg/mL) | 1.5 µM (≈ 0.705 µg/mL) |  |  | > 128 µM | 
24 | O=[N+]([O-])c1cn2c(n1)OC[C@@H](OCc1ccc(-c3ccc(OC(F)(F)F)cc3)cc1OC(F)(F)F)C2 | 0.45 µM (≈ 0.234 µg/mL) | 7.5 µM (≈ 3.9 µg/mL) | 97% | 100% | > 128 µM | 
25 | O=[N+]([O-])c1cn2c(n1)OCC(COc1ccc(-c3ccc(C(F)(F)F)cc3)nc1)C2 (stereo unspecified) | 0.22 µM (≈ 0.0925 µg/mL) | 1.3 µM (≈ 0.546 µg/mL) |  |  | > 128 µM | 
26 | N#Cc1cc(-c2ccc(C(F)(F)F)nc2)ccc1CO[C@@H]1COc2nc([N+](=O)[O-])cn2C1 | 0.28 µM (≈ 0.125 µg/mL) | 1.1 µM (≈ 0.49 µg/mL) |  |  | > 128 µM | 
27 | O=[N+]([O-])c1cn2c(n1)OCC(COc1ccc(-c3ccc(OC(F)(F)F)cc3)nc1)C2 (stereo unspecified) | 0.15 µM (≈ 0.0655 µg/mL) | 6.9 µM (≈ 3.01 µg/mL) |  |  | > 128 µM | 
28 | O=[N+]([O-])c1cn2c(n1)OC[C@@H](OCc1ccc(-c3ccc(C(F)(F)F)cn3)cc1F)C2 | 0.055 µM (≈ 0.0241 µg/mL) | 2.3 µM (≈ 1.01 µg/mL) | 90% | 77% | > 128 µM | Ratio [3]: 51
29 | O=[N+]([O-])c1cn2c(n1)OCC(COc1ccc(-c3ccc(F)cc3)cn1)C2 (stereo unspecified) | 0.03 µM (≈ 0.0111 µg/mL) | 25 µM (≈ 9.26 µg/mL) |  |  | > 128 µM | 
30 | O=[N+]([O-])c1cn2c(n1)OC[C@@H](OCc1ccc(-c3ccc(OC(F)(F)F)cc3)cc1C(F)(F)F)C2 | 0.65 µM (≈ 0.327 µg/mL) | 2.4 µM (≈ 1.21 µg/mL) | 100% | 96% | > 128 µM | 
31 | O=[N+]([O-])c1cn2c(n1)OCC(COc1ccc(-c3ccc(F)cc3)nc1)C2 (stereo unspecified) | 0.15 µM (≈ 0.0556 µg/mL) | 2 µM (≈ 0.741 µg/mL) |  |  | > 128 µM | 
32 | O=[N+]([O-])c1cn2c(n1)OCC(COCc1ccc(-c3ccc(C(F)(F)F)cc3)cc1)C2 (stereo unspecified) | 0.49 µM (≈ 0.212 µg/mL) | > 128 µM |  |  | 38 µM | 
33 | COc1cc(-c2ccc(OC(F)(F)F)cc2)ccc1CO[C@@H]1COc2nc([N+](=O)[O-])cn2C1 | 0.64 µM (≈ 0.298 µg/mL) | 5.5 µM (≈ 2.56 µg/mL) | 88% | 87% | > 128 µM | 
34 | O=[N+]([O-])c1cn2c(n1)OC[C@@H](OCc1c(F)cc(-c3ccc(C(F)(F)F)nc3)cc1F)C2 | 0.35 µM (≈ 0.16 µg/mL) | 2.9 µM (≈ 1.32 µg/mL) |  |  | 43 µM | 

Reference: ChEMBL document CHEMBL3608202, “Biarylmethoxy 2-nitroimidazooxazine antituberculosis agents: Effects of proximal ring substitution and linker reversal on metabolism and efficacy” (Bioorg Med Chem Lett, 2015)
